Key:
MCF-7 cells = experiment: Cell death estimation, cycloheximide-exposed MCF-7 cells (trypan blue); type: cell-based
Protocol: Subconfluent cultures of MCF-7 cells in 35 mm dishes, were deprived of serum for 20 hours and then exposed to 30 μg/ml cycloheximide in the presence or absence of increasing concentrations of fractionated ATA, crude ATA or EB. After 48 hours, the cells were detached with trypsin. The medium and the detached cells were pooled and centrifuged at 1000×g for 10 mins. Cell viability was estimated by adding an equivalent volume of trypan blue solution to an aliquot of suspended cells. Stained and unstained cells were counted on a hemocytometer (10^3 cells were counted for each determination).
Subconfluent, 20 hours starved MCF-7 cells were exposed to 30 μg/ml
of cycloheximide in the presence of increasing
concentrations of fractionated ATA (0, 6, 12, 25, 50 μg/ml). After
48 hours, percent of dead cells was
determined as described under "Experimental procedures". In the
presence of cycloheximide only, 60-70% of
the cells were dead after 48 hours.
Cultures of […] cells were exposed to 30 μg CX for 48 hours in the presence of EB, ATA, IGF-1, or nothing.

[1] = system: MAPK-1 (44 kDa) and MAPK-2 (42 kDa); experiment: Activation of MAPKs in MCF-7 cells (anti-active MAPK immunoblot); type: cell-based; conditions: 5 mins., ATA, EB each at 300 μg/ml, IGF-1 20 or 40 ng/ml
Protocol: FIG. 7 is the effect of ATA and EB on activation of MAPKs: MCF-7 cells were treated for 5 mins. with ATA, EB, each at 300 μg/ml, 20 ng/ml or 40 ng/ml IGF-1. Cell lysates, solubilized in Buffer C, were subjected to 12% SDS-PAGE and immunoblotted with an anti-active MAPK antibody. The membrane, after ECL detection, was stripped of bound antibody and blotted with an anti-MAPK antibody.
Nitrocellulose blots of proteins were incubated with the antibodies, and proteins were detected by enhanced chemiluminescence using horseradish peroxidase-labeled protein A, horseradish peroxidase-labeled anti rabbit IgG or horseradish peroxidase-labeled anti-mouse IgG.
The activated forms of MAPKs were detected by anti-active MAPK immunoblotting in the MCF-7 cell's lysates. […] Blotting with anti MAPKs antibodies confirms that similar amounts of MAPKs were present in treated and non-treated cells.

Compound: C[C@@H]1C[C@@H]([C@H](O)CC2CC(=O)NC(=O)C2)C(=O)[C@@H](C)C1 [CX, cycloheximide, reference compound]
- Percent dead cells (MCF-7 cells; CX only, 30 μg, 48 hours, Control without CX 10 ± 3): 56 ± 5%
- cytotoxicity at 30 µg/mL (MCF-7 cells; Homo sapiens, MCF7, 48 h, read-out: cells dead after 48 hours): 60 to 70%

Compound: CCCCCCCCCCCCCC(=O)O[C@@H]1[C@@H](C)[C@@]2(O)[C@@H](C=C(CO)C[C@]3(O)C(=O)C(C)=C[C@@H]23)[C@@H]2C(C)(C)[C@]12OC(C)=O [TPA, reference compound]
- Phosphorylated (active) isoforms MAPK-1 and MAPK-2 [1]: clearly detected
